According to patent publication US20230145793A1, “SUBSTITUTED PYRIMIDINE OR PYRIDINE AMINE DERIVATIVE, COMPOSITION THEREOF, AND MEDICAL USE THEREOF” (SHANGHAI HAIYAN PHARMACEUTICAL TECHNOLOGY CO., LTD., priority 2020, published 2023):

Target: T1, A2A receptor (Homo sapiens, UniProt P29274)
T1 construct: host or cells: CHO-K1 (co-expressing Gα15)
Assay: Test 1: inhibitory activity to the A2A receptor, cAMP HTRF in CHO-K1/ADORA2A/Gα15 cells, NECA 50 nM
Assay type: cell-based
Experimental: (§1) Test 1: Inhibitory Activities to the A2A Receptor and the A2B Receptor CHO-K1/ADORA2A/Gα15 (GenScript, M00246) and CHO-K1/ADORA2B/Gα15 (GenScript, M00329) cells were cultured in a Ham's F-12 (Gibco, 31765092) medium containing 10% FBS, Zeocin (200 ug/mL), and Hygromycin B (100 ug/mL), or containing 10% FBS, G418 (400 ug/mL), and Hygromycin B (100 ug/mL) under culture conditions specified in the corresponding instruction. Screening procedure was as follows: 1. The cell density was adjusted with a serum-free medium to 6×10^5 cells/mL. 2. 5 uL of cell solution, 2.5 μL of NECA (Sigma, 119140-10MG), and 2.5 μL of compound solution were placed into each well of a 384-well plate (Greiner Bio-One, 784075) in sequence, the final concentration of NECA was 50 nM (CHO-K1/ADORA2A) or 10 nM (CHO-K1/ADORA2B), and the compound solution was subjected to 3-fold dilution from the final concentration of 3 uM. 3. The cells were placed still and cultured in an incubator at 37° C. for 30 min. 4. 5 μL of cAMP-d2 and 5 μL of cAMP-ab (Cisbio, 62AM4PEB) were added in sequence. 5. The 384-well plate was placed in dark at the room temperature for 1 h. 6. The plate was read (Victor X5, PerkinElmer), data were analyzed by XLfit nonlinear regression, and IC50 values of the compounds were calculated.

T1 sequence (P29274 whole entry): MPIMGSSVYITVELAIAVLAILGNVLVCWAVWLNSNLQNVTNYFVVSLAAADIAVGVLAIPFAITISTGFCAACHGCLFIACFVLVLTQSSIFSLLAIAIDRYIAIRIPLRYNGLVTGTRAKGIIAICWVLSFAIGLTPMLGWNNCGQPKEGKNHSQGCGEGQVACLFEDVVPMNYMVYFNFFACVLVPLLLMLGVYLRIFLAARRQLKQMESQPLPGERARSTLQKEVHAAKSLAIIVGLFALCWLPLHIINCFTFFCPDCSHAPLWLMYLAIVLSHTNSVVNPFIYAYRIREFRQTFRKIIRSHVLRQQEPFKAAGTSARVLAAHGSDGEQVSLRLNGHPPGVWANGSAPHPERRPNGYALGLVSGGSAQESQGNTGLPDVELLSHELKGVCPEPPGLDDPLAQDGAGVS

Row | IC50 | Compound
1 | < 0.001 µM | Cc1c(C#N)cccc1-c1nc(N)c(F)c(-c2cn(Cc3ccn(C(C)C)n3)nn2)n1 [Compound L-75]
2 | 0.004 µM | Cc1c(C#N)cccc1-c1nc(N)c(F)c(-c2cn(Cc3cccc(C(C)(O)C(F)(F)F)n3)nn2)n1 [Compound L-81]
3 | 0.002 µM | Cc1c(C#N)cccc1-c1nc(N)c(F)c(-c2cn(Cc3cccc(C(C)C)n3)nn2)n1 [Compound L-68]
4 | < 0.001 µM | Cc1c(C#N)cccc1-c1nc(N)c(Cl)c(-c2cn(Cc3ccn(C4COC4)n3)nn2)n1 [Compound L-93]
5 | 0.004 µM | CC(C)(O)c1cccc(Cn2cc(-c3nc(-c4cccc(C#N)c4F)nc(N)c3F)nn2)n1 [Compound L-5]
6 | 0.002 µM | Cc1c(C#N)cccc1-c1nc(N)c(Cl)c(-c2cnn(Cc3ccn(C)n3)c2)n1 [Compound L-33]
7 | 0.001 µM | CC(C)(O)c1cccc(Cn2cc(-c3nc(-c4cccc(C#N)c4)nc4c3OCC(=O)N4)nn2)n1 [Compound L-4]
8 | 0.015 µM | Cc1c(C#N)cccc1-c1nc(N)c(F)c(-c2cn(Cc3nn(C)cc3F)nn2)n1 [Compound L-80]
9 | < 0.001 µM | COC(C)c1cccc(Cn2cc(-c3nc(-c4cccc(C#N)c4C)nc(N)c3F)nn2)n1 [Compound L-86]
10 | 0.001 µM | Cc1c(C#N)cccc1-c1nc(N)c(F)c(-c2cn(Cc3ccn(C4CCOC4)n3)nn2)n1 [Compound L-77]
11 | < 0.001 µM | CCn1ccc(Cn2cc(-c3nc(-c4cccc(C#N)c4C)nc(N)c3F)nn2)n1 [Compound L-30]
12 | 0.002 µM | Cc1c(C#N)cccc1-c1nc(N)c(F)c(-c2cn(Cc3ccn(C4COC4)n3)nn2)n1 [Compound L-88]
13 | 0.001 µM | Cc1c(C#N)cccc1-c1nc(N)c(Cl)c(-c2cn(Cc3cccn(C)c3=O)nn2)n1 [Compound L-13]
14 | 0.001 µM | Cc1c(C#N)cccc1-c1nc(N)c(F)c(-c2cn(Cc3ccn(CC(C)C)n3)nn2)n1 [Compound L-36]
15 | 0.003 µM | Cc1c(C#N)cccc1-c1nc(N)c(F)c(-c2cn(Cc3cccc(C(C)(C)C#N)n3)nn2)n1 [Compound L-54]
16 | 0.063 µM | Cc1c(C#N)cccc1-c1nc(N)nc(-c2cn(Cc3ccn(C)n3)nn2)c1F [Compound L-59]
17 | 0.004 µM | Cc1c(C#N)cccc1-c1nc(N)c(Cl)c(-c2cn(Cc3cccc(S(C)(=O)=O)c3)nn2)n1 [Compound L-84]
18 | 0.003 µM | Cc1c(C#N)cccc1-c1nc(N)c(F)c(-c2cn(Cc3ccn(C4CC(F)(F)C4)n3)nn2)n1 [Compound L-19]
19 | 0.03 µM | Cc1c(C#N)cccc1-c1nc(N)c(F)c(-c2cn(Cc3ccn(C(C)(C)C)n3)nn2)n1 [Compound L-51]
20 | 0.001 µM | Cc1c(C#N)cccc1-c1nc(N)c(F)c(-c2cn(Cc3ccn(C(C)(C)CO)n3)nn2)n1 [Compound L-49]
21 | 0.001 µM | CCc1nccc(Cn2cc(-c3nc(-c4cccc(C#N)c4C)nc(N)c3Cl)nn2)n1 [Compound L-11]
22 | 0.003 µM | COCCn1ccc(Cn2cc(-c3nc(-c4cccc(C#N)c4C)nc(N)c3F)nn2)n1 [Compound L-78]
23 | 0.001 µM | COCc1cccc(Cn2cc(-c3nc(-c4cccc(C#N)c4C)nc(N)c3F)nn2)n1 [Compound L-62]
24 | 0.001 µM | Cc1c(C#N)cccc1-c1nc(N)c(F)c(-c2cn(Cc3cccc(C(C)(C)CO)n3)nn2)n1 [Compound L-63]
25 | 0.007 µM | Cc1c(C#N)cccc1-c1nc(N)c(F)c(-c2cn(Cc3cc(F)n(C)n3)nn2)n1 [Compound L-21]
26 | 0.002 µM | CCC(C)(O)c1cccc(Cn2cc(-c3nc(-c4cccc(C#N)c4C)nc(N)c3F)nn2)n1 [Compound L-85]
27 | 0.019 µM | Cc1c(C#N)cccc1-c1nc(N)c(F)c(-c2cn(Cc3cc(C)n(C)n3)nn2)n1 [Compound L-79]

Target: T2, A2B receptor (Homo sapiens, UniProt P29275)
T2 construct: host or cells: CHO-K1 (co-expressing Gα15)
T2 sequence (P29275 1-332): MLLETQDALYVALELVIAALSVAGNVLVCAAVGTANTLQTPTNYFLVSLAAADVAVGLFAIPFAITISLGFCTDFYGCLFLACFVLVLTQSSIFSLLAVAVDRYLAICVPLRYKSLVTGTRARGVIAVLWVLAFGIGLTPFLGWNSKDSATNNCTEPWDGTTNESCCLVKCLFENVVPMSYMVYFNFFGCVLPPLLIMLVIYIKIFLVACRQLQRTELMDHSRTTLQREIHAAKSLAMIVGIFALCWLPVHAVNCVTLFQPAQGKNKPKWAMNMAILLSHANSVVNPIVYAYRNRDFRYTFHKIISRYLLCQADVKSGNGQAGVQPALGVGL
Assay: Test 1: inhibitory activity to the A2B receptor, cAMP HTRF in CHO-K1/ADORA2B/Gα15 cells, NECA 10 nM
Assay type: cell-based
Experimental: as §1

Row | IC50 | Compound
28 | 0.0005 µM | Cc1c(C#N)cccc1-c1nc(N)c(F)c(-c2cn(Cc3ccn(C(C)C)n3)nn2)n1 [Compound L-75]
29 | 0.023 µM | Cc1c(C#N)cccc1-c1nc(N)c(F)c(-c2cn(Cc3cccc(C(C)(O)C(F)(F)F)n3)nn2)n1 [Compound L-81]
30 | 0.011 µM | Cc1c(C#N)cccc1-c1nc(N)c(F)c(-c2cn(Cc3cccc(C(C)C)n3)nn2)n1 [Compound L-68]
31 | 0.004 µM | Cc1c(C#N)cccc1-c1nc(N)c(Cl)c(-c2cn(Cc3ccn(C4COC4)n3)nn2)n1 [Compound L-93]
32 | 0.006 µM | CC(C)(O)c1cccc(Cn2cc(-c3nc(-c4cccc(C#N)c4F)nc(N)c3F)nn2)n1 [Compound L-5]
33 | 0.005 µM | Cc1c(C#N)cccc1-c1nc(N)c(Cl)c(-c2cnn(Cc3ccn(C)n3)c2)n1 [Compound L-33]
34 | 0.006 µM | CC(C)(O)c1cccc(Cn2cc(-c3nc(-c4cccc(C#N)c4)nc4c3OCC(=O)N4)nn2)n1 [Compound L-4]
35 | 0.013 µM | Cc1c(C#N)cccc1-c1nc(N)c(F)c(-c2cn(Cc3nn(C)cc3F)nn2)n1 [Compound L-80]
36 | 0.001 µM | COC(C)c1cccc(Cn2cc(-c3nc(-c4cccc(C#N)c4C)nc(N)c3F)nn2)n1 [Compound L-86]
37 | 0.003 µM | Cc1c(C#N)cccc1-c1nc(N)c(F)c(-c2cn(Cc3ccn(C4CCOC4)n3)nn2)n1 [Compound L-77]
38 | 0.001 µM | CCn1ccc(Cn2cc(-c3nc(-c4cccc(C#N)c4C)nc(N)c3F)nn2)n1 [Compound L-30]
39 | 0.008 µM | Cc1c(C#N)cccc1-c1nc(N)c(F)c(-c2cn(Cc3ccn(C4COC4)n3)nn2)n1 [Compound L-88]
40 | 0.013 µM | Cc1c(C#N)cccc1-c1nc(N)c(Cl)c(-c2cn(Cc3cccn(C)c3=O)nn2)n1 [Compound L-13]
41 | 0.01 µM | Cc1c(C#N)cccc1-c1nc(N)c(F)c(-c2cn(Cc3ccn(CC(C)C)n3)nn2)n1 [Compound L-36]
42 | 0.004 µM | Cc1c(C#N)cccc1-c1nc(N)c(F)c(-c2cn(Cc3cccc(C(C)(C)C#N)n3)nn2)n1 [Compound L-54]
43 | 0.049 µM | Cc1c(C#N)cccc1-c1nc(N)nc(-c2cn(Cc3ccn(C)n3)nn2)c1F [Compound L-59]
44 | 0.024 µM | Cc1c(C#N)cccc1-c1nc(N)c(Cl)c(-c2cn(Cc3cccc(S(C)(=O)=O)c3)nn2)n1 [Compound L-84]
45 | 0.006 µM | Cc1c(C#N)cccc1-c1nc(N)c(F)c(-c2cn(Cc3ccn(C4CC(F)(F)C4)n3)nn2)n1 [Compound L-19]
46 | 0.006 µM | Cc1c(C#N)cccc1-c1nc(N)c(F)c(-c2cn(Cc3ccn(C(C)(C)C)n3)nn2)n1 [Compound L-51]
47 | 0.002 µM | Cc1c(C#N)cccc1-c1nc(N)c(F)c(-c2cn(Cc3ccn(C(C)(C)CO)n3)nn2)n1 [Compound L-49]
48 | 0.014 µM | CCc1nccc(Cn2cc(-c3nc(-c4cccc(C#N)c4C)nc(N)c3Cl)nn2)n1 [Compound L-11]
49 | 0.003 µM | COCCn1ccc(Cn2cc(-c3nc(-c4cccc(C#N)c4C)nc(N)c3F)nn2)n1 [Compound L-78]
50 | 0.003 µM | COCc1cccc(Cn2cc(-c3nc(-c4cccc(C#N)c4C)nc(N)c3F)nn2)n1 [Compound L-62]
51 | 0.005 µM | Cc1c(C#N)cccc1-c1nc(N)c(F)c(-c2cn(Cc3cccc(C(C)(C)CO)n3)nn2)n1 [Compound L-63]
52 | 0.021 µM | Cc1c(C#N)cccc1-c1nc(N)c(F)c(-c2cn(Cc3cc(F)n(C)n3)nn2)n1 [Compound L-21]
53 | 0.004 µM | CCC(C)(O)c1cccc(Cn2cc(-c3nc(-c4cccc(C#N)c4C)nc(N)c3F)nn2)n1 [Compound L-85]
54 | 0.025 µM | Cc1c(C#N)cccc1-c1nc(N)c(F)c(-c2cn(Cc3cc(C)n(C)n3)nn2)n1 [Compound L-79]
